# Experimental data from PMC10536132, “Arginine Gemini-Based Surfactants for Antimicrobial and Antibiofilm Applications: Molecular Interactions, Skin-Related Anti-Enzymatic Activity and Cytotoxicity” (Molecules, 2023).
# Marks after values point to notes of the source that are not given here.
# What was measured:
# [1] = tested on: Gram-positive and Gram-negative bacteria; test: Minimum inhibitory concentration (MIC), broth microdilution; assay type: cell-based; details: planktonic bacteria, 24 h at 37 °C, values only in Figure 2
# Text: The Gram-positive bacteria tested include some problematic microorganisms such us L. monocytogenes; these bacteria cause listeriosis, a serious disease that has grown considerably in industrialized countries due to the increased ratio of immunosuppressed persons and the extensive use of refrigerated food. We have also tested the effectivity of these surfactants against methicillin-resistant Staphylococcus aureus (MRSA), which is known as a major cause of hospital-acquired infections and, at this time, is a remarkable public health problem. […] For comparison, this figure also includes the MIC values of a LAM (lauroyl arginine methyl ester) surfactant that can be considered the single-stranded homologue of these geminis and the BAC (benzalkonium ammonium chloride), a quaternary ammonium surfactant widely used as antiseptic.
# Antimicrobial tests were carried out against the following microorganisms: Bacillus subtilis ATCC 6633, Staphylococcus epidermidis ATCC 12228, Staphylococcus aureus ATCC 29213, Listeria monocytogenes ATCC 15313, Enterococcus faecalis ATCC 29212, Escherichia coli ATCC 25922, Acinetobacter baumannii ATCC 19606, Klebsiella aerogenes ATCC 13048, methicillin-resistant Staphylococcus aureus ATCC 43300 and Pseudomonas aeruginosa PAO1. […] The growth of the microorganisms was determined visually after incubation for 24 h at 37 °C. […]
# [2] = tested on: Pseudomonas aeruginosa PAO1 biofilm; test: Biofilm eradication, crystal violet; assay type: cell-based; details: P. aeruginosa PAO1, at 32 μg/mL
# Procedure: (§1) The ability of these geminis to disperse and eradicate biofilms once formed on the propylene surfaces of the microtiter plates was evaluated using the same bacterial strains. […] The susceptibility of both biofilms against the tested surfactants was similar. At a low concentration of 32 μg/mL, C3(CA)2 and C3(LA)2 were able to eradicate around 60–70% of preformed biofilm; however, at this concentration, the […] hydrophobic compound, C3(OA)2, eradicated less than 30% of biofilm. At high concentrations, the eradication percentage is similar for all alkyl chains. […] In this case, at low concentrations, there is not a clear dependence between the antibiofilm properties and the spacer; however, at a high concentration, the best effectivity was obtained for the longer spacer chains.
# (§2) Antibiofilm activity was assessed against biofilm-producing strains of methicillin-resistant Staphylococcus aureus (MRSA) ATCC 43300 and Pseudomonas aeruginosa PAO1. Biofilm inhibition and eradication capacities of the gemini surfactants were evaluated against adherent bacterial biofilms grown in 96-well microtiter plates. Bacteria were grown overnight in tryptic soy agar at 37 °C for 24 h. The bacteria were suspended in lysogeny broth with glucose (1%) at 1.5 × 10^8 CFU/mL.
# (§3) Biofilm eradication procedure: For mature biofilm formation, 200 μL of the diluted bacterial suspension was added to each well in a 96-well microplate and incubated at 37 °C for 24 h. The wells were gently rinsed with phosphate-buffered saline (PBS) and 200 μL of the corresponding gemini surfactant solution was added to each well and incubated again at 37 °C for 24 h. Two-fold serial dilutions of the gemini surfactant were used (4–128 μg/mL). After the plates were air dried, the biofilms were stained with 50 μL of 0.1 of % crystal violet for 25 min. The plates were rinsed with water and then 150 μL of 96% ethanol containing 10% acetic acid was added to all 96-well plates to dissolve the remaining crystal violet-stained biofilm. The absorbance value was recorded at 570 nm. Each assay was conducted at least three times and the results were averaged.
# [3] = tested on: methicillin-resistant Staphylococcus aureus (MRSA) ATCC 43300 biofilm; test: Biofilm eradication, crystal violet; assay type: cell-based; details: at 32 μg/mL
# Procedure: as §1, §2, §3
# [4] = set-up: method as in doi:10.1021/la981295l; details: cited from earlier work
# [5] = Water solubility (qualitative); assay type: physicochemical; details: qualitative statement
# Text: In all cases, the pKap values are smaller than those described by Fitch, as well as those cited in many biochemistry textbooks. The presence of fatty chains in arginine surfactants induces the formation of aggregates in which the positive charges are close to each other. As a result, the repulsion between these charges induces the release of protons, thus increasing the acid character of the compound. The cmc is mainly governed by the hydrophobic content of the molecules. For the same spacer chain, the cmc drastically decreases as the alkyl chain increases. For the same alkyl chain of 12 carbon atoms, the cmc slightly diminishes as the number of the methylene groups in the spacer increases. Unconventional aggregation behavior and two cmcs were inferred from different techniques. The first cmcs, inferred primarily from tension data, are between 0.002 and 0.005 mM. Fluorescence and conductivity experiments indicated a second cmc at concentrations two orders of magnitude higher than that from surface tension (0.3–0.6 mM). The low cmc obtained by surface tension measurements was ascribed to non-globular aggregates with small aggregation numbers larger than two or three, given the nearly constant surface tension above these cmc. The surface tension values at the first cmc were in the same order for all gemini surfactants. […]
# [6] = set-up: method as in doi:10.1021/la981295l; details: cited from earlier work; remark: listed apart in the source
# [7] = set-up: method as in doi:10.1021/la981295l; details: cited from earlier work; remark: listed apart in the source
# [8] = tested on: Collagenase from Clostridium histolyticum (ChC); test: Collagenase inhibitory activity assay (FALGPA substrate); assay type: biochemical; details: approximately 25 μg of sample in the reaction mixture, 15 min preincubation
# Procedure: The inhibition of collagenase followed the methodology proposed by Thring et al.. First, a solution containing the surfactants at 1000 μg/mL was prepared. An aliquot of 40 μL of each sample was used in the assay. Collagenase from Clostridium histolyticum (ChC) was dissolved in tricine buffer (50 mM, pH 8.0) immediately before use at an initial concentration of 0.35 U/mL. The synthetic substrate N-[3- (2-furyl) acryloyl]-Leu-Gly-Pro-Ala (FALGPA) (40 μL) was dissolved in the kit buffer (60 μL) according to the supplier information. The samples of C3(LA)2, C6(LA)2 and C9(LA)2 were incubated with the enzyme for 15 min before the substrate addition. The final reaction mixture contained tricine buffer, 0.8 mM FALGPA, 0.1 U of ChC and approximately 25 μg of each surfactant. Ultrapure water was used as a negative control, while the positive control was EGCG solution, prepared at the same concentration of the surfactants. The absorbance at λ = 345 nm was measured immediately after the substrate incorporation and continuously during 20 min in kinetic mode using an Elx800 Microplate Reader Biotek® (Winooski, VT, USA). The collagenase inhibitory activity of each sample was determined in triplicate, according to the following equation:(1) Collagenase inhibitory activity %=A1−A2/A1×100 where A1 and A2 represent the absorbance in the absence and presence of sample, respectively.
# [9] = molecular target: porcine pancreatic elastase (Sus scrofa, UniProt P00772); test: Elastase inhibitory assay; assay type: biochemical; details: 40 µL of 1000 µg/mL stock; EGCG 250 μM
# Procedure: The elastase inhibition was tested according to the method described by […] et al.. First, a stock solution of each surfactant at 1000 μg/mL was prepared in sterile ultrapure water. A stock solution of porcine pancreatic elastase at 3.33 mg/mL in sterile ultrapure water was also prepared. The substrate […] (Ala) 3-p-nitroanilide was dissolved in 0.2 mM Tris-HCl buffer solution (pH 8.0). The samples (40 μL) were then diluted and incubated together with the enzyme for 15 min prior to the substrate addition. Negative control was sterile ultrapure water, while EGCG (250 μM or 0.114 mg/mL) was used as the positive control. The absorbance at λ = 410 nm was measured immediately after the substrate addition and continuously during the next 2 h using an Elx800 Microplate Reader (Biotek®). […] The anti-elastase activity (in %), determined in triplicate, was calculated according to the following equation:(2) Elastase inhibitory activity %=A1-A2/A1×100 where A1 and A2 represent the absorbance in the absence and presence of the testing samples, respectively.
# [10] = tested on: bovine hyaluronidase; test: Hyaluronidase inhibitory activity; assay type: biochemical; details: positive control
# Procedure: The hyaluronidase inhibitory activity was performed according to the method used by Altinyay et al. with some modifications. Briefly, a work solution containing bovine hyaluronidase (7900 units/mL) in 0.1 M acetate buffer (pH 3.6) was prepared. Fifty microliters of the work solution were mixed 1:1 with the surfactants’ solution in 5% DMSO. For the negative control, 50 μL of 5% DMSO was used, while EGCG was used as positive control. After 20 min of incubation at 37 °C, 50 μL of calcium chloride (12.5 mM) was added to the mixture and again incubated for 20 min at 37 °C. At that point, 250 μL sodium hyaluronate (1.2 mg/mL) was added and incubated for 40 min at 37 °C. After incubation, the mixture was treated with 50 μL of 0.4 M NaOH and 100 μL of 0.2 M sodium borate and then incubated for 3 min in a boiling water bath. After cooling to room temperature, 1.4 mL of p-dimethylaminobenzaldehyde solution was added to the reaction mixture, being further incubated at 37 °C for 20 min. The resulting colored solution was measured at λ = 585 nm (PerkinElmer-Lambda 35, Brazil). The hyaluronidase inhibitory activity of each sample was calculated according to the following formula:(3) Hyaluronidase inhibitory activity %=A1−A2/A1×100 where A1 and A2 represent the absorbance in the absence and presence of the testing sample, respectively.
# Chain of porcine pancreatic elastase (P00772 27-266): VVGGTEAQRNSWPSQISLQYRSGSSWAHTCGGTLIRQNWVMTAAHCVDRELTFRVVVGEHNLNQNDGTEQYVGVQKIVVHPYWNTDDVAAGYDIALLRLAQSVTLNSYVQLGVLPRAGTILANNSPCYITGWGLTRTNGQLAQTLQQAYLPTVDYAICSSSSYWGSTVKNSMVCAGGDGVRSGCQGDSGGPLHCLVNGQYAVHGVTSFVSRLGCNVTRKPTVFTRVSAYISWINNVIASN
water solubility [5],Structure (SMILES),"antimicrobial activity (MIC), in words [1]",preformed biofilm eradicated [2],preformed biofilm eradicated [3],CMC (mM) Fluorescence [4],CMC (mM) Conductivity [6],CMC (mM) Surface Tension [7],γcmc ([7]; surface tension at the cmc),anti-collagenase activity (inhibition) [8] [%],anti-elastase activity (inhibition) [9] [%],hyaluronidase inhibitory activity [10] [%]
very good water solubility,CCCCCCCCCC(=O)NC(CCCNC(=N)N)C(=O)NCCCNC(=O)C(CCCNC(=N)N)NC(=O)CCCCCCCCC (centres unmarked) [C3(CA)2],most active against all tested microorganisms,60–70%,60–70%,3 * mM,2 * mM,0.043 * mM,32 * mN/m,,,
,"O=C(O[C@@H]1Cc2c(O)cc(O)cc2O[C@@H]1c1cc(O)c(O)c(O)c1)c1cc(O)c(O)c(O)c1 [EGCG, epigalocatequin-3-galate, reference compound]",,,,,,,,54.2,67.3,13
